ChEMBL document CHEMBL3045446, “In vitro antimicrobial and antimycobacterial activity of some chalcones and their derivatives” (2013)
Converted amounts (≈) assume the structure as drawn.

Columns and labels:
Type in all cases: functional
Shigella flexneri [1] = assay: Antimicrobial activity against Shigella flexneri MTCC1457 assessed as growth inhibition after 24 hr by agar streak dilution method; conditions: MTCC1457, 24 h
Candida albicans [2] = assay: Antimicrobial activity against Candida albicans MTCC 183 assessed as diameter of growth inhibition zone after 48 hr
Staphylococcus aureus [3] = assay: Antimicrobial activity against Staphylococcus aureus MTCC 96 assessed as growth inhibition after 24 hr by agar streak dilution method; conditions: MTCC 96, 24 h
Escherichia coli [4] = assay: Antimicrobial activity against Escherichia coli MTCC 739 assessed as growth inhibition after 24 hr by agar streak dilution method; conditions: MTCC 739, 24 h
Pseudomonas aeruginosa [5] = assay: Antimicrobial activity against Pseudomonas aeruginosa MTCC 741 assessed as diameter of growth inhibition zone after 24 hr
Bacillus cereus [6] = assay: Antimicrobial activity against Bacillus cereus MTCC 430 assessed as growth inhibition after 24 hr by agar streak dilution method; conditions: MTCC 430, 24 h
Aspergillus fumigatus [7] = assay: Antimicrobial activity against Aspergillus fumigatus MTCC 343 assessed as growth inhibition after 48 hr by agar streak dilution method; conditions: MTCC 343, 48 h
Proteus vulgaris [8] = assay: Antimicrobial activity against Proteus vulgaris MTCC 1771 assessed as diameter of growth inhibition zone after 24 hr
Aspergillus clavatus [9] = assay: Antimicrobial activity against Aspergillus clavatus MTCC 1323 assessed as diameter of growth inhibition zone after 48 hr
Bacillus cereus [10] = assay: Antimicrobial activity against Bacillus cereus MTCC 430 assessed as diameter of growth inhibition zone after 24 hr
Salmonella typhi [11] = assay: Antimicrobial activity against Salmonella enterica subsp. enterica serovar Typhi MTCC 733 assessed as diameter of growth inhibition zone after 24 hr
Proteus vulgaris [12] = assay: Antimicrobial activity against Proteus vulgaris MTCC 1771 assessed as growth inhibition after 24 hr by agar streak dilution method; conditions: MTCC 1771, 24 h
Shigella flexneri [13] = assay: Antimicrobial activity against Shigella flexneri MTCC1457 assessed as diameter of growth inhibition zone after 24 hr
Salmonella typhi [14] = assay: Antimicrobial activity against Salmonella enterica subsp. enterica serovar Typhi MTCC 733 assessed as growth inhibition after 24 hr by agar streak dilution method; conditions: MTCC 733, 24 h
Klebsiella pneumoniae [15] = assay: Antimicrobial activity against Klebsiella pneumoniae MTCC 109 assessed as growth inhibition after 24 hr by agar streak dilution method; conditions: MTCC 109, 24 h
[16] = test system: Mycobacterium tuberculosis; assay: Antituberculosis activity against Mycobacterium tuberculosis H37Rv assessed as growth inhibition after 12 to 28 days by L-J MIC method; conditions: for MIC: Mycobacterium tuberculosis, H37Rv
Aspergillus niger [17] = assay: Antimicrobial activity against Aspergillus niger MTCC 282 assessed as diameter of growth inhibition zone after 48 hr
Aspergillus niger [18] = assay: Antimicrobial activity against Aspergillus niger MTCC 282 assessed as growth inhibition after 48 hr by agar streak dilution method; conditions: MTCC 282, 48 h
Aspergillus clavatus [19] = assay: Antimicrobial activity against Aspergillus clavatus MTCC 1323 assessed as growth inhibition after 48 hr by agar streak dilution method; conditions: MTCC 1323, 48 h
Aspergillus fumigatus [20] = assay: Antimicrobial activity against Aspergillus fumigatus MTCC 343 assessed as diameter of growth inhibition zone after 48 hr
Staphylococcus aureus [21] = assay: Antimicrobial activity against Staphylococcus aureus MTCC 96 assessed as diameter of growth inhibition zone after 24 hr
Pseudomonas aeruginosa [22] = assay: Antimicrobial activity against Pseudomonas aeruginosa MTCC 741 assessed as growth inhibition after 24 hr by agar streak dilution method; conditions: MTCC 741, 24 h
Klebsiella pneumoniae [23] = assay: Antimicrobial activity against Klebsiella pneumoniae MTCC 109 assessed as diameter of growth inhibition zone after 24 hr
Escherichia coli [24] = assay: Antimicrobial activity against Escherichia coli MTCC 739 assessed as diameter of growth inhibition zone after 24 hr
Candida albicans [25] = assay: Antimicrobial activity against Candida albicans MTCC 183 assessed as growth inhibition after 48 hr by agar streak dilution method; conditions: MTCC 183, 48 h

| Compound | MIC (Shigella flexneri [1]) [µg/mL] | diameter of the inhibition zone (DIZ) (Candida albicans [2]) [mm] | MIC (Staphylococcus aureus [3]) [µg/mL] | MIC (Escherichia coli [4]) [µg/mL] | diameter of the inhibition zone (DIZ) (Pseudomonas aeruginosa [5]) [mm] | MIC (Bacillus cereus [6]) [µg/mL] | MIC (Aspergillus fumigatus [7]) [µg/mL] | diameter of the inhibition zone (DIZ) (Proteus vulgaris [8]) [mm] | diameter of the inhibition zone (DIZ) (Aspergillus clavatus [9]) [mm] | diameter of the inhibition zone (DIZ) (Bacillus cereus [10]) [mm] | diameter of the inhibition zone (DIZ) (Salmonella typhi [11]) [mm] | MIC (Proteus vulgaris [12]) [µg/mL] | diameter of the inhibition zone (DIZ) (Shigella flexneri [13]) [mm] | MIC (Salmonella typhi [14]) [µg/mL] | MIC (Klebsiella pneumoniae [15]) [µg/mL] | growth inhibition (GI) [16] [%] | MIC [16] [µg/mL] | diameter of the inhibition zone (DIZ) (Aspergillus niger [17]) [mm] | MIC (Aspergillus niger [18]) [µg/mL] | MIC (Aspergillus clavatus [19]) [µg/mL] | also measured |
| --- | --- | --- | --- | --- | --- | --- | --- | --- | --- | --- | --- | --- | --- | --- | --- | --- | --- | --- | --- | --- | --- |
| CC(=O)N1N=C(c2ccc(Nc3cc(=O)oc4ccccc34)cc2)CC1c1ccccc1 (configuration not stated) | 100 (≈ 236 µM) | 12 | 100 (≈ 236 µM) | 100 (≈ 236 µM) | 10 | 100 (≈ 236 µM) | 100 (≈ 236 µM) | 13 | 16 | 13 | 13 | 100 (≈ 236 µM) | <10 | 100 (≈ 236 µM) | 100 (≈ 236 µM) | 95 | 1000 (≈ 2360 µM) | <10 | 100 (≈ 236 µM) | 100 (≈ 236 µM) | diameter of the inhibition zone (DIZ) (Aspergillus fumigatus [20]): 13 mm; diameter of the inhibition zone (DIZ) (Staphylococcus aureus [21]): <10 mm; MIC (Pseudomonas aeruginosa [22]): 100 µg/mL (≈ 236 µM); diameter of the inhibition zone (DIZ) (Klebsiella pneumoniae [23]): 11 mm; diameter of the inhibition zone (DIZ) (Escherichia coli [24]): <10 mm; MIC (Candida albicans [25]): 100 µg/mL (≈ 236 µM) |
| Nc1nc(-c2ccc(Nc3cc(=O)oc4ccccc34)cc2)cc(-c2ccccc2Br)n1 | 50 (≈ 103 µM) | 23 | 100 (≈ 206 µM) | 100 (≈ 206 µM) | 15 | 100 (≈ 206 µM) | 50 (≈ 103 µM) | 17 | 17 | 16 | 20 | 100 (≈ 206 µM) | 19 | 50 (≈ 103 µM) | 50 (≈ 103 µM) | 98 | 100 (≈ 206 µM) | 20 | 50 (≈ 103 µM) | 50 (≈ 103 µM) | diameter of the inhibition zone (DIZ) (Aspergillus fumigatus [20]): 19 mm; diameter of the inhibition zone (DIZ) (Staphylococcus aureus [21]): 17 mm; MIC (Pseudomonas aeruginosa [22]): 100 µg/mL (≈ 206 µM); diameter of the inhibition zone (DIZ) (Klebsiella pneumoniae [23]): 18 mm; diameter of the inhibition zone (DIZ) (Escherichia coli [24]): 16 mm; MIC (Candida albicans [25]): 25 µg/mL (≈ 51.5 µM) |
| N#Cc1c(-c2ccc(Cl)cc2Cl)cc(-c2ccc(Nc3cc(=O)oc4ccccc34)cc2)nc1N | 12.5 (≈ 25 µM) | 23 | 3.12 (≈ 6.25 µM) | 12.5 (≈ 25 µM) | 25 | 6.25 (≈ 12.5 µM) | 12.5 (≈ 25 µM) | 28 | 22 | 26 | 24 | 3.12 (≈ 6.25 µM) | 23 | 12.5 (≈ 25 µM) | 12.5 (≈ 25 µM) | 99 | 25 (≈ 50.1 µM) | 22 | 12.5 (≈ 25 µM) | 25 (≈ 50.1 µM) | diameter of the inhibition zone (DIZ) (Aspergillus fumigatus [20]): 23 mm; diameter of the inhibition zone (DIZ) (Staphylococcus aureus [21]): 28 mm; MIC (Pseudomonas aeruginosa [22]): 6.25 µg/mL (≈ 12.5 µM); diameter of the inhibition zone (DIZ) (Klebsiella pneumoniae [23]): 23 mm; diameter of the inhibition zone (DIZ) (Escherichia coli [24]): 20 mm; MIC (Candida albicans [25]): 12.5 µg/mL (≈ 25 µM) |
| CC(=O)N1N=C(c2ccc(Nc3cc(=O)oc4ccccc34)cc2)CC1c1ccc(C)cc1 (configuration not stated) | 50 (≈ 114 µM) | 14 | 100 (≈ 229 µM) | 100 (≈ 229 µM) | 16 | 100 (≈ 229 µM) | 100 (≈ 229 µM) | 20 | 11 | 16 | 14 | 50 (≈ 114 µM) | 20 | 100 (≈ 229 µM) | 100 (≈ 229 µM) | 98 | 200 (≈ 457 µM) | 19 | 50 (≈ 114 µM) | 100 (≈ 229 µM) | diameter of the inhibition zone (DIZ) (Aspergillus fumigatus [20]): 15 mm; diameter of the inhibition zone (DIZ) (Staphylococcus aureus [21]): 16 mm; MIC (Pseudomonas aeruginosa [22]): 100 µg/mL (≈ 229 µM); diameter of the inhibition zone (DIZ) (Klebsiella pneumoniae [23]): 13 mm; diameter of the inhibition zone (DIZ) (Escherichia coli [24]): 12 mm; MIC (Candida albicans [25]): 100 µg/mL (≈ 229 µM) |
| O=C(/C=C/c1ccc(O)cc1O)c1ccc(Nc2cc(=O)oc3ccccc23)cc1 | 100 (≈ 250 µM) | 16 | 50 (≈ 125 µM) | 50 (≈ 125 µM) | 19 | 100 (≈ 250 µM) | 25 (≈ 62.6 µM) | 20 | 20 | 16 | 21 | 25 (≈ 62.6 µM) | 17 | 25 (≈ 62.6 µM) | 25 (≈ 62.6 µM) | 95 | 500 (≈ 1250 µM) | 19 | 50 (≈ 125 µM) | 25 (≈ 62.6 µM) | diameter of the inhibition zone (DIZ) (Aspergillus fumigatus [20]): 22 mm; diameter of the inhibition zone (DIZ) (Staphylococcus aureus [21]): 20 mm; MIC (Pseudomonas aeruginosa [22]): 25 µg/mL (≈ 62.6 µM); diameter of the inhibition zone (DIZ) (Klebsiella pneumoniae [23]): 21 mm; diameter of the inhibition zone (DIZ) (Escherichia coli [24]): 19 mm; MIC (Candida albicans [25]): 100 µg/mL (≈ 250 µM) |
| NC(=O)c1cnccn1 [PYRAZINAMIDE] |  |  |  |  |  |  |  |  |  |  |  |  |  |  |  | 99 | 6.25 (≈ 50.8 µM) |  |  |  |  |
